# In patent publication US12624057B2, “Bisphosphonate quinolone conjugates and uses thereof” (BIOVINC, LLC, priority 2016, dated 2026):
# Entries after “also recorded” stand apart in the source; their conditions may differ. Read-outs that look alike come from different tables or passages of the source.
# How the values were obtained:
# [1] = test system: biofilms of P. aeruginosa strain ATCC-15442; assay: Preformed biofilms on HA discs, P. aeruginosa; type: cell-based, Pseudomonas aeruginosa
# Description: (§1) Antimicrobial susceptibility testing of BP-ciprofloxacin against preformed biofilms of S. aureus strain ATCC-6538 and P. aeruginosa strain ATCC-15442: Strains cultured on appropriate agar plates (Columbia agar plate for S. aureus; MacConkey agar plate for P. aeruginosa) were transferred to liquid microbiological media and incubated for 24 h/37° C. under aerobic conditions. After incubation, strains were diluted to the density of 1 MF. The microbial dilutions were introduced to wells of 24-well plates containing HA discs as a substrate, or simply to polystyrene wells where the bottom surface of the wells served as the substrate for biofilm development. Strains were incubated at 37° C. for 4 hrs. Next, the microbe-containing solutions were removed from the wells. The surfaces, HA discs and polystyrene plates, were gently rinsed to leave adhered cells and to remove planktonic or loosely-bound microbes. Surfaces prepared in this manner were immersed in fresh TSB medium containing 0.24-125 mg/L of BP-ciprofloxacin conjugate. After 24 hrs of incubation at 37° C. the surfaces were rinsed using physiological saline solution and transferred to 1 mL of 0.5% saponin (Sigma-Aldrich, St Louis, MO). The surfaces were vortex-mixed vigorously for 1 minute to detach cells. Subsequently, all microbial suspensions were diluted 10 to 10^9 times. Each dilution ([…]) was cultured on the appropriate stable medium (MacConkey, Columbia for P. aeruginosa and S. aureus, respectively) and incubated at 37-C for 24 hours. After this time, the microbial colonies were counted and the number of cells forming biofilm was assessed. Results were presented as the mean number of CFU per square millimeter surface±standard error of the mean. To estimate the exact surface area of HA discs, x-ray tomographic analysis was applied. For estimation of the area of test plate bottoms, the equation for circle area: πr2 was applied.
# Antimicrobial susceptibility testing of 6 against preformed biofilms of S. aureus strain ATCC-6538 and P. aeruginosa strain ATCC-15442: Strains cultured on appropriate agar plates (Columbia agar plate for S. aureus; MacConkey agar plate for P. aeruginosa) were transferred to liquid microbiological media and incubated for 24 hrs/37° C. under aerobic conditions. After incubation, strains were diluted to the density of 1 MF. The microbial dilutions were introduced to wells of 24-well plates containing HA discs as a substrate, or simply to polystyrene wells where the bottom surface of the wells served as the substrate for biofilm development. Strains were incubated at 37° C. for 4 hrs. Next, the microbe-containing solutions were removed from the wells. The surfaces, HA discs and polystyrene plates, were gently rinsed to leave adhered cells and to remove planktonic or loosely-bound microbes. […] After 24 hrs of incubation at 37° C. the surfaces were rinsed using physiological saline solution and transferred to 1 mL of 0.5% saponin (Sigma-Aldrich, St Louis, MO). The surfaces were vortex-mixed vigorously for 1 minute to detach cells. Subsequently, all microbial suspensions were diluted 10-1 to 10-9 times. Each dilution ([…]) was cultured on the appropriate stable medium (MacConkey, Columbia for P. aeruginosa and S. aureus, respectively) and incubated at 37° C. for 24 hrs. After this time, the microbial colonies were counted and the number of cells forming biofilm was assessed. Results were presented as the mean number of CFU per square millimeter surface±standard error of the mean. […]
# [2] = test system: Aggregatibacter actinomycetemcomitans (Aa; wild-type rough strain D7S-1; serotype a); assay: MIC assay on Aa; type: cell-based
# From the text: Since this BP-ciprofloxacin conjugate is novel and has not been tested in vivo, we performed an initial safety and efficacy study in an animal model of peri-implant osteomyelitis. This model is a unique in-house jawbone peri-implant osteomyelitis model that was developed specifically for translational value to study biofilm-mediated disease and host response in vivo (Freire, et al, Development of animal model for Aggregatibacter actinomycetemcomitans biofilm-mediated oral osteolytic infection: a preliminary study. J Periodontol 2011; 82:778-89). […] After biofilms are established on the implants in vitro, they are surgically transferred to the jawbone of each rat. Animals are anesthetized, the cheeks are retracted and a transmucosal osteotomy is performed so implants can be manually inserted into the osteotomy and secured. Two biofilm-inoculated implants are placed in each rat (n=12 rats and 24 implants) in the palatal bone bilaterally.
# Subsequently, the plate was incubated for 24 h/37° C. in a shaker to obtain optimal conditions for microbial growth and to prevent bacteria from forming biofilms. After incubation, the absorbance was measured once again. The following control samples were established: negative control sample one: sterile medium without microbes; negative control sample two: sterile medium without microbes implemented with DMSO (dimethyl sulfoxide, Sigma-Aldritch) to final concentration of 1% (v/v); positive control sample one: medium+microbes with no compound tested; positive control sample two: medium+microbes with no compound tested but implemented with DMSO to final concentration of 1% (v/v). […] To assess relative number of cells, the following calculations were performed. […] Next, the relative number of cells subjected to incubation with tested compounds were counted as follows: […].
# After biofilms were established on the implants in vitro, they were surgically transferred to the jawbone of each rat. […]
# [3] = test system: biofilms of P. aeruginosa strain ATCC-15442; assay: Preformed biofilms on polystyrene, P. aeruginosa; type: cell-based, Pseudomonas aeruginosa; details: polystyrene substrate, tested range of concentrations
# Description: as §1, with “Results were presented as the mean number of CFU per square millimeter surface±standard error of the mean. To estimate the exact surface area of HA discs, x-ray tomographic analysis was applied. For estimation of the area of test plate bottoms, the equation for circle area: πr2 was applied.” left out
# Antimicrobial susceptibility testing of 6 against preformed biofilms of S. aureus strain ATCC-6538 and P. aeruginosa strain ATCC-15442: Strains cultured on appropriate agar plates (Columbia agar plate for S. aureus; MacConkey agar plate for P. aeruginosa) were transferred to liquid microbiological media and incubated for 24 hrs/37° C. under aerobic conditions. […] After this time, the microbial colonies were counted and the number of cells forming biofilm was assessed. […]
# [4] = test system: biofilms of Aggregatibacter actinomycetemcomitans grown on HA; assay: Aa biofilms grown on HA; type: cell-based
smiles,measurement,setting,value
"O=C(O)c1cn(C2CC2)c2cc(N3CCNCC3)c(F)cc2c1=O [ciprofloxacin, reference compound]",activity against P. aeruginosa biofilm (in words),[1],no inhibitory or bactericidal activity; also recorded: inactive under either acidic or physiological conditions
same,MIC90,[2]; Example 1,2 µg/mL
same,MIC90,[2]; Example 5,2 µg/mL
same,MIC90,[2]; Example 6,2000 µg/mL
"O=C(O)c1cn(C2CC2)c2cc(N3CCN(C(=O)Oc4ccc(CC(P(=O)(O)O)P(=O)(O)O)cc4)CC3)c(F)cc2c1=O [Compound 6, 1-cyclopropyl-7-(4-((4-(2,2-diphosphonoethyl)phenoxy)carbonyl)piperazin-1-yl)-6-fluoro-4-oxo-1,4-dihydroquinoline-3-carboxylic acid]",MBIC50,[3],No MBIC50 was observed
same,MBIC90,[3],no MBIC90 was observed for either pathogen
same,MBIC50,[3]; listed as BP-ciprofloxacin,no MBIC^50 was observed
same,concentration at which bactericidal,[1]; acidic and basic conditions (Example 1),50 µg/mL
same,concentration at which bactericidal,[1]; acidic and physiological conditions (Example 5),50 µg/mL
same,activity against P. aeruginosa biofilm (in words),[1]; listed as conjugate,improved bactericidal activity in basic conditions; also recorded: improved bactericidal activity in physiological conditions
same,concentration at which most effective,"[1]; physiological pH, also effective at acidic pH",8 µg/mL
same,activity against Aa biofilm on HA (in words),[4],effective antimicrobial activity
same,concentration with effective antimicrobial profile,[4]; strain D7S-5 grown on HA,> 15 µg/mL
